How the values were obtained:
[1] = tested on: TNBS-induced colitis; assay: TNBS-induced colitis in mice, disease activity score; type: in vivo
Method: (§1) A standard experimental animal model of colitis induced by intracolonic administration of 2,4,6-trinitrobenzene sulfonic acid (TNBS) to mice is used in the following example. A detailed description of this model has been published (Santucci et al. (2003) Gastroenterology 124:1381-94) and is incorporated herein by reference. Briefly, 6-8 week old Balb/c mice were given TNBS intracolonically at a dose of 1.5 mg in 0.1 mL of 30% ethanol. The mice were randomized to the various treatment groups (n=6 per group). Beginning one hour later and continuing every 12 h for 5 days, the mice were treated orally with vehicle (1% carboxymethylcellulose (CMC)), 5-ASA (mesalamine) (25, 50 or 75 mg/kg) or with equimolar doses of 2-hydroxy-5-amino-benzoic acid 4-(thioxo-5H-[1,2]dithiol-3-yl)-phenyl ester hydrochloride (Compound XXXV) (130 mg/kg), or with […] (100 mg/kg), 50% (66 mg/kg) and 25% (33 mg/kg) of that dose. The mice were evaluated (blindly) on the final day of the study for the presence of diarrhea and fecal occult blood, and their body weights were measured. […] After sacrifice, a sample of the colon was excised for measurement of myeloperoxidase (MPO) activity, as a marker of granulocyte infiltration. All results were compared to those obtained with healthy mice as well.

[2] = tested on: visceral pain perception in response to colorectal distension; assay: Rat model of visceral pain perception, colorectal distension, abdominal withdrawal reflex score; type: in vivo
Method: A rat model of visceral pain perception, a pre-clinical model of irritable bowel syndrome, was used in the following example. Rats (male, Wistar, 200-250 g, obtained from Charles River, Monza, Italy), were housed in plastic cages and maintained under controlled conditions with 12-hours light/dark cycle with lights on at 7.00 AM. Tap water and standard laboratory chow were freely available. Before experiments, rats were individually trained by spending 2-3 hours per day in a plexiglass cage for 2-3 days. It allowed them to adjust to a movement-restriction environment. Food was withheld for 12 hours before colorectal distension (CRD) recording were performed. Experiments were performed in awake rats and were conducted in a blind manner in that the observer was not aware of the identity of drug administered to each animal.
In the testing day, rats were sedated with ether inhalation and a 2 cm long latex balloon was inserted intrarectally 2 cm from the anal verge and fixed at the base of the tail. The balloon was connected via a double-barreled cannula to a pressure transducer to continuously monitoring the rectal pressure by a computer (PowerLab PC, A.D. Instruments, Milford, Mass., USA) and to a syringe for inflation/deflation of the balloon. The rats were then housed in a small cage (20×8×8 cm) on an elevated Plexiglas™ platform and allowed to wake up and adapt for 1 hour. After recovery from sedation, animals underwent the CRD procedure and behavioral responses were tested. The night before the experiments, the balloons were inflated and left overnight so the latex stretched and the balloons became compliant.
CRD of 20 seconds, performed every 5 minutes, was applied in increment of 0.4 ml starting from 0.4 ml up to 1.6 ml water. To achieve an accurate measurement of the colonic parameters and perception, the distensions were repeated twice for each intensity and data for each animal were averaged for analysis. Each animal underwent a double set of CRD. Twenty minutes after the first sequence of CRD (0.4 mL-1.6 ml water), drugs were administered intraperitoneally (i.p.) and a second set of CRD was performed. Behavioral responses during the first and the second set of CRD were assessed and compared.
Behavioral response to CRD was assessed by measuring the abdominal withdrawal reflex (AWR) using a semiquantitative score (1).
The effects of mesalamine and Compound XXXV on colonic compliance and sensitivity were determined using a total of 8 fasting rats. To investigate whether the administration of mesalamine and Compound XXXV could revert pain induced by CRD, after the first sequence of CRD, […], after which a second set of CRD was repeated.
All data are presented as the mean±SEM, with sample sizes of 4 rats/group; statistical comparison of paired data was performed by the Wilcoxon signed rank test. An associated probability (p value) of less that 5% was considered significant.

[3] = tested on: TNF-α, IFN-γ, IL-1, IL-2, IL-12 p40, RANTES mRNA; assay: TNBS-induced colitis in mice, colonic mRNA of pro-inflammatory cytokines and chemokines by RT-PCR; type: in vivo; settings: dose equimolar to 50 mg/kg mesalamine; normalized to GAPDH, ratio to healthy controls
Method: The same model was used as described above. In this example, the effects of mesalamine (50 mg/kg) were compared to those of equimolar doses of Compound XXXV. In addition to measuring the severity of colitis by measuring disease activity score and MPO activity, tissues were processed for measurement of a number of genes for inflammatory cytokines and other mediators.
In particular, mRNA expression in mice of tumour necrosis factor-alpha (TNF-α), interferon gamma (IFN-γ), colonic interleukin (IL)-1, IL-2, IL-10, IL-12 p40, RANTES, cyclooxygenase (COX)-1, COX-2, constitutive endothelial nitric oxide synthase (eNOS), and inducible NOS (iNOS) was measured as described in Wallace et al. (1999) Gastroenterology 117: 557-566, incorporated herein by reference.
Briefly, reverse transcription-polymerase chain reaction (RT-PCR) was used to detect and quantify mRNA of the particular cytokine/chemokine/enzyme. Glyceraldehyde-3-phosphate dehydrogenase (GAPDH) was used as the “housekeeping gene” for mRNA expression (i.e., as an internal control). For each sample, the ratio of the amplification of the target gene to the amplification of GAPDH (expression of each is measured by performing densitometry on gels) was obtained. […]

[4] = tested on: myeloperoxidase (MPO) activity; assay: TNBS-induced colitis in mice, colonic myeloperoxidase (MPO) activity as marker of granulocyte infiltration; type: in vivo
Method: as §1

[5] = Viability of HT-29 human colon cancer cells, MTT assay; type: cell-based; settings: HT-29 colon cancer cells, 72 h exposure, HT-29, MTT, read-out: Cell viability rate as a percent of the vehicle (DMSO)-treated cells
Method: HT-29 cells were grown in culture using standard methods. The cells were exposed to vehicle (DMSO), mesalamine or Compound XXXV. Concentrations ranging from 0.1 to 10 μM were tested, with each concentration tested in 6 wells. At the end of 72 h of exposure to the test drugs, cell viability was measured using the MTT [3-(4,5-dimethylthiaxol-2-yl)-2,5-diphenyltetrazolium bromide] assay (Carmichael et al. (1978) Cancer Res. 47, 936-942), incorporated herein by reference.

Compound: Nc1ccc(O)c(C(=O)Oc2ccc(-c3cc(=S)ss3)cc2)c1 [Compound XXXV, 5-Amino-2-hydroxy-benzoic acid 4-(5-thioxo-5H-[1,2]dithiol-3-yl)-phenyl ester]
- Disease Activity Index ([1]; Compound XXXV 130 mg/kg vs mesalamine 50 mg/kg, ADT-OH 80 mg/kg and their mixture, FIG. 3): almost twice as effective as either mesalamine alone, ADT-OH alone or a mixture of mesalamine and ADT-OH
- Every endpoint of FIGS. 7-14 (MPO activity, disease activity score, colonic mRNA expression) ([1]; dose equimolar to 50 mg/kg mesalamine): superior to mesalamine in every endpoint
- Disease activity score ([1]; dose-ranging, oral every 12 h for 5 days, equimolar doses of 50 mg/kg and 75 mg/kg mesalamine, FIG. 1): superior to mesalamine in reducing the activity score
- Perception score (visceral pain in response to colorectal distension) ([2]; 100 mg/kg i.p., second set of CRD 0.4-1.6 ml, FIG. 15): more effective than mesalamine (and vehicle) in reducing visceral pain
- Pain perception score after glibenclamide pretreatment ([2]; 0.8 mL colorectal distention, 100 mg/kg, glibenclamide 10 mg/kg i.p. 30 min before, FIG. 17): reversed by pretreatment with glibenclamide
- Pain perception score ([2]; 0.8 mL colorectal distention, 100 mg/kg, FIG. 17): significantly reduced the pain perception
- Pain perception score ([2]; equimolar doses: mesalamine 50 mg/kg, Compound XXXV 130 mg/kg, ADT-OH 80 mg/kg, Compound XXVII 100 mg/kg, 4-HTB 50 mg/kg, vs vehicle): significantly reduced pain perception
- Expression of mRNA for pro-inflammatory cytokines and chemokines [3]: suppressed expression of mRNA for several pro-inflammatory cytokines and chemokines
- MPO activity (granulocyte infiltration) ([4]; Compound XXXV 130 mg/kg, FIG. 4): significantly reduced inflammation
- MPO activity ([4]; dose-ranging, oral every 12 h for 5 days, highest doses tested, FIG. 2): significantly reduced (almost in half)
- viability at 72 h, 0.1 µM ([5]; 0.1 μM): 88.4 ± 2.9%
- viability at 72 h, 1 µM ([5]; 1 μM): 87.3 ± 2.3%
- viability at 72 h, 10 µM ([5]; 10 μM): 79.6 ± 1.9%

Reference: US7910568B2, “Derivatives of 4- or 5-aminosalicylic acid” (Antibe Therapeutics Inc., priority 2005, dated 2011)
